Data: publication PMC4887910, “A synthetic kisspeptin analog that triggers ovulation and advances puberty” (Scientific Reports, 2016)
Entries after “also recorded” stand apart in the source; their conditions may differ. Read-outs that look alike come from different tables or passages of the source. Starred links: 1 amine or outer side, 2 acyl side, 3 side chain; linkers in the order of their positions; H or OH if unused. Non-standard residues stand in square brackets, D forms with d. Residues, ends and D or L forms follow the SMILES beside them. No end group written: not given here. *: point of attachment. Glyψ(1,4-Tz)Leu = CC(C)C[C@@H](C(=O)[*:2])n1cc(CN[*:1])nn1; γGlu = O=C(O)[C@H](CCC(=O)[*:2])N[*:1]; Arg(Me) = CNC(=N)NCCC[C@H](N)C(=O)O; Palmitoyl = CCCCCCCCCCCCCCCC(=O)*

Key:
[1] = biological target: T1, hKiSS1R (Homo sapiens, UniProt Q969F8); assay: intracellular Ca2+ mobilization assay (Fluo4 NW) in KiSS1R-transfected HEK293A cells; type: cell-based; conditions: for EC50: SEM
T1 construct: expressed in transfected cells; host or cells: HEK293A
From the text: Figure 1 Chemical structures and half maximal effective concentration (mean ± SEM, N = 3) of kisspeptin 10 and analogs C2–C7 as measured in a calcium mobilization assay in KiSS1R-transfected HEK293 cell line. Ac: acetyl; Palm-γ-Glu: N-palmitoylated-γ-glutamate, Tz: Triazole; Me: Methyl. TEXT PRINTED IN THE PICTURE: Kp10 1: EC50 (nM): 2.6 ± 2.2 | 2: EC50 (nM): 0.07 ± 0.06 | 3: EC50 (nM): 1.6 ± 0.2 | 4: EC50 (nM): 216 ± 110 | 5: EC50 (nM): 0.22 ± 0.33 | 6: EC50 (nM): 0.33 ± 0.24 | 7: EC50 (nM): 0.04 ± 0.02
Receptor activation was monitored using Fluo4 NW Ca^2+ assay kit in HEK293A cells transfected with the hKiSS1R as previously described[11] (kind gift of professor N. de Roux, INSERM U690, Hôpital Robert Debré, Paris, France). Considering the type of analysis performed, assessment of second messenger activation of a heterologous expressed receptor, the use of potentially misidentified cells has no impact on the result. Basal fluorescence was measured with a plate reader (PolarStar Optima, BMG Labtech). Immediately after the basal reading, the test compound was added at different concentrations and the intracellular Ca^2+ dynamic monitored. To generate concentration activity curves, the mean basal value was subtracted from the value obtained after stimulation. The area under the curve (AUC) was calculated and plotted against concentrations. Concentration activity data points were fitted to sigmoidal curves generated by GraphPad Prism 5 and EC50 automatically calculated.

[2] = test system: ewes; assay: LH plasma concentration in ewes during artificial luteal phase (under flugestone acetate), intramuscular injection; type: in vivo, ewe (Ile de France); conditions: 15 nmol/ewe im, breeding season, ewes under FA treatment, N = 6
Description: (§1) To induce an artificial luteal phase intact cyclic (October–December) or anestrus acyclic (March–June) ewes were implanted with vaginal sponge containing FA (Chronogest, Intervet), a progesterone analog, for 14 days. To compare the activity of Kp, C3, C5 and C6 injection of test drug was performed during the treatment with FA. For the experiments of synchronization and induction of ovulation 24 hours before drug injection the vaginal sponge was removed and the same day a catheter (ID 1.0, L 52 mm, Intraflon 2, Vygon, France) was inserted in the jugular vein. On the day of experiment the test compound was injected intramuscularly and blood samples (2 mL) were taken at various time intervals post-injection: every10 minutes for the first hour, every 20 minutes from 2 to 6 hours, every 60 minutes from 6 to 10 hours and every 120 minutes from 10 hours to the end of the experiment). Data are expressed as means ± SEM (N = 6–12 per group, for details on group size see figure legends).
Plasma LH concentrations in ewe were measured using previously described radioimmunoassays. The assay standard was 1055-CY-LH (equivalent to 2.2 NIH-LH-S1). Intra-assay coefficient of variation averaged 9% and assay sensitivity was 0.2 ± 0.05 ng/mL. Plasma FSH levels were measured using the reagents supplied by Tucker Endocrine Research Institute (Atlanta, Georgia, USA). […]

[3] = test system: ewes; assay: LH surge / ovulation induction in ewes injected 24 h after flugestone acetate withdrawal (LH, FSH, progesterone); type: in vivo, ewe (Ile de France); conditions: 15 nmol/ewe im
Description: as §1
Plasma LH concentrations in ewe were measured using previously described radioimmunoassays. […] Plasma FSH levels were measured using the reagents supplied by Tucker Endocrine Research Institute (Atlanta, Georgia, USA). […]
Progesterone was measured by an ELISA assay on 96-well plate (Immuno Nunc Maxisorp C96) coated with goat anti-mouse IgG (Uptima UP462140, Interchim) overnight at 4 °C. […]

[4] = test system: KiSS1R KO mice; assay: circulating LH concentration in KiSS1R KO mice; type: in vivo, mouse
Description: Adult male and female KiSS1R KO mice[41] were primed by 5 ip injections of 40 ng/100 μL GnRH at 30 minute intervals and an equivalent volume of saline was injected to wild type mice. This protocol allows the pituitary gland to become more responsive to GnRH in this mouse line as previously reported. Blood samples (4 μL) were collected from the tail tip as previously described, before the first, third and fifth injection, and 30, 105 and 125 minutes after the last injection. C6 was injected immediately after the last blood sampling (0.3 nmoles/200 μL, a dose established in a preliminary experiment) and blood samples taken 20, 40, 60, 90, 120, 180, 300 minutes following injection. After 300 minutes a further injection of GnRH (40 ng/100 μL) was performed in KiSS1R KO mice, and a final blood sample was taken 30 minutes later to confirm the functionality of the HPG axis. Whole blood samples were collected in 150 μL of 0.1 M PBS-0.05% Tween20, mixed and moved to dry ice at the end of each sampling round. Experiments were conducted during the first 8 hours of the light phase to avoid any endogenous LH surges associated with the preovulatory stage of the female reproductive cycle. Data are expressed as means ± SEM (N = 4–7 per group, for details on group size see figure legends).
A sandwich ELISA, adapted from Steyn et al.[42], was used to measure LH concentration in mice. Monoclonal bovine LHβ 518 B7 (1:1,000 dilution) was used as the capture antibody (obtained from Lillian Sibley at University of California Davis), and the standard was NIDDK mouse LH reference preparation from AF Parlow (AFP5306A mouse RIA kit). The assay sensitivity was 0.2 ng/mL and the mean intra-assay coefficient of variation averaged 11%.

[5] = KiSS1R-transfected HEK293 cell line, Fluo4 NW, AUC fitted, mean ± SEM, N = 3, read-out: EC50, calcium mobilization
[6] = 40 ng GnRH 300 min after C6, sample 30 min later
[7] = 5 ip injections of 40 ng GnRH at 30 min intervals, 15 minutes post injection

T1 sequence (Q969F8 whole entry): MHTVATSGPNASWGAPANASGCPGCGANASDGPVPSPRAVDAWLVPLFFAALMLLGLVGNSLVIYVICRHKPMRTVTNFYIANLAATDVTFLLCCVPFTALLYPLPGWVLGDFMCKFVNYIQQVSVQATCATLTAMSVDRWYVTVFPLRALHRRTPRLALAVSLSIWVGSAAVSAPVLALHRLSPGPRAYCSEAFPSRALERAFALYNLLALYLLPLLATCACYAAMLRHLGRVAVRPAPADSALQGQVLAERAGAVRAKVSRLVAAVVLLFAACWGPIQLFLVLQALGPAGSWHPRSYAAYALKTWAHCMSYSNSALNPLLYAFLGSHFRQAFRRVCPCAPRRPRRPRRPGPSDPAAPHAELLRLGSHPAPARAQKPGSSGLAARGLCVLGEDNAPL

## CCCCCCCCCCCCCCCC(=O)N[C@@H](CCC(=O)N[C@@H](Cc1ccc(O)cc1)C(=O)N[C@@H](CC(N)=O)C(=O)N[C@@H](Cc1c[nH]c2ccccc12)C(=O)N[C@@H](CC(N)=O)C(=O)N[C@@H](CO)C(=O)N[C@@H](Cc1ccccc1)C(=O)NCc1cn([C@@H](CC(C)C)C(=O)N[C@@H](CCCNC(=N)N)C(=O)N[C@@H](Cc2ccc(O)cc2)C(N)=O)nn1)C(=O)O [C5] ({Palmitoyl-γGlu}-YNWNSF[Glyψ(1,4-Tz)Leu]RY-NH2)
[1]; [5]
  EC50: 0.22 ± 0.33 nM

## CCCCCCCCCCCCCCCC(=O)N[C@@H](CCC(=O)N[C@@H](Cc1ccc(O)cc1)C(=O)N[C@@H](CC(N)=O)C(=O)N[C@@H](Cc1c[nH]c2ccccc12)C(=O)N[C@@H](CC(N)=O)C(=O)N[C@@H](CO)C(=O)N[C@@H](Cc1ccccc1)C(=O)NCc1cn([C@@H](CC(C)C)C(=O)N[C@@H](CCCNC(=N)NC)C(=O)N[C@@H](Cc2ccc(O)cc2)C(N)=O)nn1)C(=O)O [C6] ({Palmitoyl-γGlu}-YNWNSF[Glyψ(1,4-Tz)Leu][Arg(Me)]Y-NH2)
[1]; C6 versus first generation analog C3
  enhancement in EC50 compared to C3: ~ 5 fold
[1]
  EC50: 0.33 ± 0.24 nM

## CNC(=N)NCCC[C@H](NC(=O)[C@H](CC(C)C)n1cc(CNC(=O)[C@H](Cc2ccccc2)NC(=O)[C@H](CO)NC(=O)[C@H](CC(N)=O)NC(=O)[C@H](Cc2c[nH]c3ccccc23)NC(=O)[C@H](CC(N)=O)NC(=O)[C@H](Cc2ccc(O)cc2)NC(C)=O)nn1)C(=O)N[C@@H](Cc1ccc(O)cc1)C(N)=O [C7] (Ac-YNWNSF[Glyψ(1,4-Tz)Leu][Arg(Me)]Y-NH2)
[1]; [5]
  EC50: 0.04 ± 0.02 nM

## YNWNSFGLRY-NH2 [Kp10]
[1]; [5]
  EC50: 2.6 ± 2.2 nM
[2]
  effect on LH plasma concentration: negligible effect; also recorded: no effect on LH basal level
[3]; 24 h after ending FA treatment, N = 6
  effect on LH plasma concentration, non-breeding season: no increase
[3]; non-breeding season, 1 ng mL^−1 threshold = ovulation hallmark
  progesterone level: < 1 ng/mL

## gonadotropin releasing hormone (QHWSYGLRPG; ends and bridges not checked; UniProt P13562 22-31, looked up) [GnRH, hormone injected ip to prime KiSS1R KO mice and check pituitary function]
[4]; [6]
  LH after further GnRH injection at end of experiment, KO females: 4.8 ± 1.9 ng/mL
  LH after further GnRH injection at end of experiment, KO males: 3.2 ± 0.4 ng/mL
[4]; [7]
  LH after GnRH priming, KO females: 2.3 ± 0.8 ng/mL
  LH after GnRH priming, KO males: 2.7 ± 0.6 ng/mL
[4]; KiSS1R KO mice, 15 minutes post injection
  fold increase of circulating LH after GnRH priming: 3–6 fold
